For 14 compounds, EC50 and Drug uptake results are on record in ChEMBL document CHEMBL4184165, “Unique arginine array improves cytosolic localization of hydrocarbon-stapled peptides” (Bioorg Med Chem, 2018).

For data set [1], the system named is SJSA-1. Kind of data set: Cytotoxicity in human SJSA1 cells over expressing human DM2 after 24 hrs by CellTiter-Glo assay. The data set is classed as functional, cell-based. The settings on record: SJSA-1, 24 h.
The nature of data set [2]: Drug uptake in cytosol of human HeLa cells at 500 nM after 30 mins by FCS analysis. It is filed as ADME, subcellular. The settings on record: 0.5 h, 0.5 µM.
Data set [3] in a line: Drug uptake in cytosol of human HeLa cells at 500 nM after 30 mins by FCS analysis relative to control. The data set is classed as ADME, subcellular. The settings on record: 0.5 h, 0.5 µM.

Structures are written as SMILES. pEC50: −log10 of the molar value. Where a SMILES comes first, the peptide text is derived from it. Bridges are numbered along the chain shown (N, C = ends). [ ]: non-standard residue; d: D form. The star is where a group is joined. X1 = CCN(CC)c1ccc2c(-c3ccc(S(=O)(=O)*)cc3S(=O)(=O)[O-])c3ccc(=[N+](CC)CC)cc-3oc2c1; R8 = C=CCCCCCC[C@@](C)(N)C(=O)O; S5 = C=CCCC[C@](C)(N)C(=O)O; βAla = NCCC(=O)O

The pEC50 is the negative decadic logarithm of the EC50, by convention in mol/L.

As to `CC(=O)N[C@@H](CC(C)C)C(=O)N[C@@H](CCCNC(=N)N)C(=O)N[C@@H](CCCNC(=N)N)C(=O)N[C@@H](CCC(=O)O)C(=O)N[C@H](C(=O)N[C@@H](Cc1ccccc1)C(=O)N[C@]1(C)CCCCCC/C=C/CCC[C@@](C)(C(=O)N[C@@H](CCCNC(=N)N)C(=O)N[C@@H](CC(N)=O)C(N)=O)NC(=O)[C@H](CC(C)C)NC(=O)[C@H](CCCNC(=N)N)NC(=O)[C@H](CCCCN)NC(=O)[C@H](Cc2c[nH]c3ccccc23)NC(=O)[C@H](CCCNC(=N)N)NC(=O)[C@H](CC(=O)O)NC1=O)[C@@H](C)O` (Ac-LRRETF[R8]DRWKRL[S5]RN-NH2; staple (E) 7-14), the pEC50 in data set [1] is 5.11.
For the compound `CC(=O)N[C@@H](CCCNC(=N)N)C(=O)N[C@@H](CO)C(=O)N[C@@H](CCC(N)=O)C(=O)N[C@@H](CCCNC(=N)N)C(=O)N[C@@H](CCCNC(=N)N)C(=O)N[C@@H](Cc1ccccc1)C(=O)N[C@]1(C)CCCCCC/C=C/CCC[C@@](C)(C(=O)N[C@@H](CCC(=O)O)C(=O)N[C@@H](CC(N)=O)C(N)=O)NC(=O)[C@H](CC(C)C)NC(=O)[C@H](CC(C)C)NC(=O)[C@H](CCCNC(=N)N)NC(=O)[C@H](Cc2c[nH]c3ccccc23)NC(=O)[C@H](CC(=O)O)NC(=O)[C@H](CCCNC(=N)N)NC1=O` (Ac-RSQRRF[R8]RDWRLL[S5]EN-NH2; staple (E) 7-14), the negative-log EC50 (pEC50) in data set [1] is 5.72.
As for `CCN(CC)c1ccc2c(-c3ccc(S(=O)(=O)NCCC(=O)N[C@@H](CCC(N)=O)C(=O)N[C@@H](CO)C(=O)N[C@@H](CCC(N)=O)C(=O)N[C@@H](CCC(N)=O)C(=O)N[C@H](C(=O)N[C@@H](Cc4ccccc4)C(=O)N[C@]4(C)CCCCCC/C=C/CCC[C@@](C)(C(=O)N[C@@H](CCC(N)=O)C(=O)N[C@@H](CC(N)=O)C(N)=O)NC(=O)[C@H](CC(C)C)NC(=O)[C@H](CC(C)C)NC(=O)[C@H](CCCCN)NC(=O)[C@H](Cc5c[nH]c6ccccc56)NC(=O)[C@H](CC(C)C)NC(=O)[C@H](CC(N)=O)NC4=O)[C@@H](C)O)cc3S(=O)(=O)[O-])c3ccc(=[N+](CC)CC)cc-3oc2c1` ({X1-βAla}-QSQQTF[R8]NLWKLL[S5]QN-NH2; staple (E) 7-14), the Drug uptake in data set [2] is 256 to 260 nM; in data set [3] it was 51.9%.
`CC(=O)N[C@@H](CCCNC(=N)N)C(=O)N[C@@H](CO)C(=O)N[C@@H](CCC(N)=O)C(=O)N[C@@H](CCC(=O)O)C(=O)N[C@@H](CCCNC(=N)N)C(=O)N[C@@H](Cc1ccccc1)C(=O)N[C@]1(C)CCCCCC/C=C/CCC[C@@](C)(C(=O)N[C@@H](CCCNC(=N)N)C(=O)N[C@@H](CCCNC(=N)N)C(N)=O)NC(=O)[C@H](CC(C)C)NC(=O)[C@H](CCCNC(=N)N)NC(=O)[C@H](CCCCN)NC(=O)[C@H](Cc2c[nH]c3ccccc23)NC(=O)[C@H](CC(C)C)NC(=O)[C@H](CC(=O)O)NC1=O` (Ac-RSQERF[R8]DLWKRL[S5]RR-NH2; staple (E) 7-14) had a negative logarithm of the EC50 (pEC50) in data set [1] of 5.11.
`CCN(CC)c1ccc2c(-c3ccc(S(=O)(=O)NCCC(=O)N[C@@H](CCCNC(=N)N)C(=O)N[C@@H](CO)C(=O)N[C@@H](CCC(N)=O)C(=O)N[C@@H](CCC(=O)O)C(=O)N[C@@H](CCCNC(=N)N)C(=O)N[C@@H](Cc4ccccc4)C(=O)N[C@]4(C)CCCCCC/C=C/CCC[C@@](C)(C(=O)N[C@@H](CCC(=O)O)C(=O)N[C@@H](CC(N)=O)C(N)=O)NC(=O)[C@H](CC(C)C)NC(=O)[C@H](CCCNC(=N)N)NC(=O)[C@H](CCCNC(=N)N)NC(=O)[C@H](Cc5c[nH]c6ccccc56)NC(=O)[C@H](CC(C)C)NC(=O)[C@H](CCCNC(=N)N)NC4=O)cc3S(=O)(=O)[O-])c3ccc(=[N+](CC)CC)cc-3oc2c1` ({X1-βAla}-RSQERF[R8]RLWRRL[S5]EN-NH2; staple (E) 7-14): the Drug uptake in data set [2] was 69 nM; in data set [3] it was 13.8%.
The compound `COc1ccc(C2=N[C@@H](c3ccc(Cl)cc3)[C@@H](c3ccc(Cl)cc3)N2C(=O)N2CCNC(=O)C2)c(OC(C)C)c1` [NUTLIN-3] gave a negative-log EC50 (pEC50) in data set [1] of 4.64.
`CC(=O)N[C@@H](CC(C)C)C(=O)N[C@@H](CCCNC(=N)N)C(=O)N[C@@H](CCCNC(=N)N)C(=O)N[C@@H](CCC(=O)O)C(=O)N[C@H](C(=O)N[C@@H](Cc1ccccc1)C(=O)N[C@]1(C)CCCCCC/C=C/CCC[C@@](C)(C(=O)N[C@@H](CCCNC(=N)N)C(=O)N[C@@H](CCCNC(=N)N)C(N)=O)NC(=O)[C@H](CC(C)C)NC(=O)[C@H](CCCNC(=N)N)NC(=O)[C@H](CCCCN)NC(=O)[C@H](Cc2c[nH]c3ccccc23)NC(=O)[C@H](CC(C)C)NC(=O)[C@H](CC(=O)O)NC1=O)[C@@H](C)O` (Ac-LRRETF[R8]DLWKRL[S5]RR-NH2; staple (E) 7-14) gave a negative logarithm of the EC50 (pEC50) in data set [1] of 5.49.
With `CCN(CC)c1ccc2c(-c3ccc(S(=O)(=O)NCCC(=O)N[C@@H](CC(C)C)C(=O)N[C@@H](CO)C(=O)N[C@@H](CCC(N)=O)C(=O)N[C@@H](CCC(=O)O)C(=O)N[C@H](C(=O)N[C@@H](Cc4ccccc4)C(=O)N[C@]4(C)CCCCCC/C=C/CCC[C@@](C)(C(=O)N[C@@H](CCC(=O)O)C(=O)N[C@@H](CC(N)=O)C(N)=O)NC(=O)[C@H](CC(C)C)NC(=O)[C@H](CC(C)C)NC(=O)[C@H](CCCCN)NC(=O)[C@H](Cc5c[nH]c6ccccc56)NC(=O)[C@H](CC(C)C)NC(=O)[C@H](CC(=O)O)NC4=O)[C@@H](C)O)cc3S(=O)(=O)[O-])c3ccc(=[N+](CC)CC)cc-3oc2c1`, the Drug uptake is reported as 62 nM in data set [2] and 12.4% in data set [3].
Compound `CCN(CC)c1ccc2c(-c3ccc(S(=O)(=O)NCCC(=O)N[C@@H](CC(C)C)C(=O)N[C@@H](CO)C(=O)N[C@@H](CCC(N)=O)C(=O)N[C@@H](CCC(=O)O)C(=O)N[C@H](C(=O)N[C@@H](Cc4ccccc4)C(=O)N[C@]4(C)CCCCCC/C=C/CCC[C@@](C)(C(=O)N[C@@H](CCCNC(=N)N)C(=O)N[C@@H](CCCNC(=N)N)C(N)=O)NC(=O)[C@H](CC(C)C)NC(=O)[C@H](CCCNC(=N)N)NC(=O)[C@H](CCCNC(=N)N)NC(=O)[C@H](Cc5c[nH]c6ccccc56)NC(=O)[C@H](CC(C)C)NC(=O)[C@H](CCCNC(=N)N)NC4=O)[C@@H](C)O)cc3S(=O)(=O)[O-])c3ccc(=[N+](CC)CC)cc-3oc2c1` ({X1-βAla}-LSQETF[R8]RLWRRL[S5]RR-NH2; staple (E) 7-14) registered a Drug uptake in data set [2] of 284 nM.
The compound `CC(=O)N[C@@H](CC(C)C)C(=O)N[C@@H](CO)C(=O)N[C@@H](CCC(N)=O)C(=O)N[C@@H](CCC(=O)O)C(=O)N[C@H](C(=O)N[C@@H](C)C(=O)N[C@]1(C)CCCCCC/C=C/CCC[C@@](C)(C(=O)N[C@@H](CCCNC(=N)N)C(=O)N[C@@H](CCCNC(=N)N)C(N)=O)NC(=O)[C@H](CC(C)C)NC(=O)[C@H](CCCNC(=N)N)NC(=O)[C@H](CCCNC(=N)N)NC(=O)[C@H](Cc2c[nH]c3ccccc23)NC(=O)[C@H](CC(C)C)NC(=O)[C@H](CCCNC(=N)N)NC1=O)[C@@H](C)O` (Ac-LSQETA[R8]RLWRRL[S5]RR-NH2; staple (E) 7-14) had a pEC50 in data set [1] of 5.32.
As to `CC(=O)N[C@@H](CCCNC(=N)N)C(=O)N[C@@H](CO)C(=O)N[C@@H](CCC(N)=O)C(=O)N[C@@H](CCC(=O)O)C(=O)N[C@@H](CCCNC(=N)N)C(=O)N[C@@H](Cc1ccccc1)C(=O)N[C@]1(C)CCCCCC/C=C/CCC[C@@](C)(C(=O)N[C@@H](CCC(=O)O)C(=O)N[C@@H](CC(N)=O)C(N)=O)NC(=O)[C@H](CC(C)C)NC(=O)[C@H](CCCNC(=N)N)NC(=O)[C@H](CCCNC(=N)N)NC(=O)[C@H](Cc2c[nH]c3ccccc23)NC(=O)[C@H](CC(C)C)NC(=O)[C@H](CCCNC(=N)N)NC1=O` (Ac-RSQERF[R8]RLWRRL[S5]EN-NH2; staple (E) 7-14), the pEC50 in data set [1] is 5.14.
`CC(=O)N[C@@H](CCCNC(=N)N)C(=O)N[C@@H](CCCNC(=N)N)C(=O)N[C@@H](CCCNC(=N)N)C(=O)N[C@@H](CCCNC(=N)N)C(=O)N[C@@H](CCCNC(=N)N)C(=O)N[C@@H](Cc1ccccc1)C(=O)N[C@]1(C)CCCCCC/C=C/CCC[C@@](C)(C(=O)N[C@@H](CCC(=O)O)C(=O)N[C@@H](CC(N)=O)C(N)=O)NC(=O)[C@H](CC(C)C)NC(=O)[C@H](CC(C)C)NC(=O)[C@H](CCCCN)NC(=O)[C@H](Cc2c[nH]c3ccccc23)NC(=O)[C@H](CC(C)C)NC(=O)[C@H](CC(=O)O)NC1=O` (Ac-RRRRRF[R8]DLWKLL[S5]EN-NH2; staple (E) 7-14) gave a pEC50 in data set [1] of 5.80.
For `CC(=O)N[C@@H](CCC(N)=O)C(=O)N[C@@H](CO)C(=O)N[C@@H](CCC(N)=O)C(=O)N[C@@H](CCC(N)=O)C(=O)N[C@H](C(=O)N[C@@H](Cc1ccccc1)C(=O)N[C@]1(C)CCCCCC/C=C/CCC[C@@](C)(C(=O)N[C@@H](CCC(N)=O)C(=O)N[C@@H](CC(N)=O)C(N)=O)NC(=O)[C@H](CC(C)C)NC(=O)[C@H](CC(C)C)NC(=O)[C@H](CCCCN)NC(=O)[C@H](Cc2c[nH]c3ccccc23)NC(=O)[C@H](CC(C)C)NC(=O)[C@H](CC(N)=O)NC1=O)[C@@H](C)O` (Ac-QSQQTF[R8]NLWKLL[S5]QN-NH2; staple (E) 7-14), the pEC50 in data set [1] is 4.99. This pEC50 lies 0.81 log units lower than the previous one.
Same read-out and setting: with `CC(=O)N[C@@H](CC(C)C)C(=O)N[C@@H](CO)C(=O)N[C@@H](CCC(N)=O)C(=O)N[C@@H](CCC(=O)O)C(=O)N[C@H](C(=O)N[C@@H](Cc1ccccc1)C(=O)N[C@]1(C)CCCCCC/C=C/CCC[C@@](C)(C(=O)N[C@@H](CCCNC(=N)N)C(=O)N[C@@H](CCCNC(=N)N)C(N)=O)NC(=O)[C@H](CC(C)C)NC(=O)[C@H](CCCNC(=N)N)NC(=O)[C@H](CCCNC(=N)N)NC(=O)[C@H](Cc2c[nH]c3ccccc23)NC(=O)[C@H](CC(C)C)NC(=O)[C@H](CCCNC(=N)N)NC1=O)[C@@H](C)O` (Ac-LSQETF[R8]RLWRRL[S5]RR-NH2; staple (E) 7-14) the figure was 5.72.
